For the test, the target named is T1, human TRPV4 (Homo sapiens, UniProt Q9HBA0).
T1 construct: host or cells: tetracycline-inducible Flp-In T-REx 293 cells
Put plainly: Hypotonicity-induced Ca2+ influx (Fluo-4, FDSS). It is filed as cell-based. The method, boiled down: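 Flp-In T-REx 293 cells with tetracycline-induced human TRPV4, loaded with Fluo-4 for 60 min at 25 °C. Compound added 5 min before hypotonic mannitol/CaCl2 solution. Ca2+ signal recorded for 4.5 min on FDSS.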

[1] abbreviates: Flp-In T-REx 293 cells expressing human TRPV4, examples listed under heading 'Human IC50<50 nM'.
Where [2] appears, read: Flp-In T-REx 293 cells stably expressing human TRPV4, compounds listed by potency bin (<10 nM Tables 96-1/96-2, <3 nM Table 97).

We go through 33 molecules from patent publication US12673946B2, “Pyrimidin-4(3H)-one derivatives as TRPV4 antagonists” (RaQualia Pharma Inc., priority 2020, dated 2026).

Some results are limits rather than exact numbers.

T1 sequence (Q9HBA0 whole entry): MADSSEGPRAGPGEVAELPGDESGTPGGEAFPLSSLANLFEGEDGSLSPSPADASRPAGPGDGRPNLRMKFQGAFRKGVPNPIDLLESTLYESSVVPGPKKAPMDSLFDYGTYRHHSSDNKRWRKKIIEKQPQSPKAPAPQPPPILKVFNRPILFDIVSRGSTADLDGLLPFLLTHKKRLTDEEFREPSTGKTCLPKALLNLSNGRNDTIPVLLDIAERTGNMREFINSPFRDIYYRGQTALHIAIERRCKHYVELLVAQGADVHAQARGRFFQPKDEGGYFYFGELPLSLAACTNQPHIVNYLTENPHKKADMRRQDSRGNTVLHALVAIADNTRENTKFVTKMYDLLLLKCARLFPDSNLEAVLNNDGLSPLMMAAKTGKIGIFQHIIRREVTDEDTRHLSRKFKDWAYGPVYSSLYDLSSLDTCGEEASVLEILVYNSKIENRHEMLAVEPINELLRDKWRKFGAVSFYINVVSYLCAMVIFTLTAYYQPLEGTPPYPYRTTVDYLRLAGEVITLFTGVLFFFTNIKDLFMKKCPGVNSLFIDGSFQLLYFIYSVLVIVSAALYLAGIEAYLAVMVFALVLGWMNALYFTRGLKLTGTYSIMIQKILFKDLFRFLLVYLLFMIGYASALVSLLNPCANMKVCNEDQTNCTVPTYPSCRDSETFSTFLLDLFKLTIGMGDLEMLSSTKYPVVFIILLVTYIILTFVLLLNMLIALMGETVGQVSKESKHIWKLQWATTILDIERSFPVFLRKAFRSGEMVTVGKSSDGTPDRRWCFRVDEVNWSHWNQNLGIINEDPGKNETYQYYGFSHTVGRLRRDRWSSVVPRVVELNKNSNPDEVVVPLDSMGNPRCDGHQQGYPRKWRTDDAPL

Turning to `CC(C)c1cccc(C2(c3nc4c(c(=O)[nH]3)CN(C(=O)[C@H](O)c3cccc(-c5cccc(F)c5)c3)CCC4)CC2)c1` [51-8], the IC50 runs as follows: under setting [1], below 50 nM; under setting [2], below 10 nM.
The like results for `O=C([C@H](O)c1cccc(-c2cccc(F)c2)c1)N1CCCc2nc(C3(c4cccc(C5CCCCC5)c4)CC3)[nH]c(=O)c2C1` [52-1] were, in that order, below 50 nM and below 10 nM.
The like results for `O=C([C@H](O)c1cccc(-c2cccc(C(F)(F)F)c2)c1)N1CCCc2nc(C3(c4cccc(C5CCCCC5)c4)CC3)[nH]c(=O)c2C1` [52-2] were, in that order, below 50 nM and below 10 nM.
The like results for `O=C([C@H](O)c1cccc(-c2cccc(Cl)c2)c1)N1CCCc2nc(C3(c4cccc(C5CCCCC5)c4)CC3)[nH]c(=O)c2C1` [52-3] were, in that order, below 50 nM and below 3 nM.
As for `O=C([C@H](O)c1cccc(-c2cccc(OC(F)(F)F)c2)c1)N1CCCc2nc(C3(c4cccc(C5CCCCC5)c4)CC3)[nH]c(=O)c2C1` [52-4], the IC50 was below 50 nM under setting [1] and below 10 nM under setting [2].
The like results for `CC(C)(C)c1cccc(-c2cccc([C@@H](O)C(=O)N3CCCc4nc(C5(c6cccc(C7CCCCC7)c6)CC5)[nH]c(=O)c4C3)c2)c1` [52-5] were, in that order, below 50 nM and below 10 nM.
The like results for `O=C([C@H](O)c1cccc(-c2csc3ccccc23)c1)N1CCCc2nc(C3(c4cccc(C5CCCCC5)c4)CC3)[nH]c(=O)c2C1` [52-6] were, in that order, below 50 nM and below 10 nM.
The like results for `O=C([C@H](O)c1cccc(-c2coc3ccccc23)c1)N1CCCc2nc(C3(c4cccc(C5CCCCC5)c4)CC3)[nH]c(=O)c2C1` [52-7] were, in that order, below 50 nM and below 10 nM.
On to `O=C([C@H](O)c1cccc(-c2cccc(C(F)(F)F)c2)c1)N1CCCc2nc(C3(c4cccc(Oc5ccccc5)c4)CC3)[nH]c(=O)c2C1` [52-8], for which the IC50 was below 50 nM under setting [1] and below 10 nM under setting [2].
The like results for `O=C([C@H](O)c1cccc(-c2cccc(C(F)(F)F)c2)c1)N1CCCc2nc(C3(c4cccc(-c5csc6ccccc56)c4)CC3)[nH]c(=O)c2C1` [52-9] were, in that order, below 50 nM and below 10 nM.
The like results for `O=C([C@H](O)c1cccc(-c2cccc(OC(F)(F)F)c2)c1)N1CCCc2nc(C3(c4cccc(-c5csc6ccccc56)c4)CC3)[nH]c(=O)c2C1` [52-10] were, in that order, below 50 nM and below 10 nM.
Consider `O=C([C@H](O)c1cccc(-c2cccc(Cl)c2)c1)N1CCCc2nc(C3(c4cccc(-c5csc6ccccc56)c4)CC3)[nH]c(=O)c2C1` [52-11], for which the IC50 runs as follows: under setting [1], below 50 nM; under setting [2], below 10 nM.
The like results for `CC(C)(C)c1cccc(-c2cccc([C@@H](O)C(=O)N3CCCc4nc(C5(c6cccc(-c7csc8ccccc78)c6)CC5)[nH]c(=O)c4C3)c2)c1` [52-12] were, in that order, below 50 nM and below 10 nM.
The like results for `CC(C)c1cccc(-c2cccc([C@@H](O)C(=O)N3CCCc4nc(C5(c6cccc(-c7csc8ccccc78)c6)CC5)[nH]c(=O)c4C3)c2)c1` [52-13] were, in that order, below 50 nM and below 10 nM.
The like results for `O=C([C@H](O)c1cccc(-c2cc(F)cc(Cl)c2)c1)N1CCCc2nc(C3(c4cccc(-c5csc6ccccc56)c4)CC3)[nH]c(=O)c2C1` [52-14] were, in that order, below 50 nM and below 10 nM.
With `O=C([C@H](O)c1cccc(-c2cccc(C3CC3)c2)c1)N1CCCc2nc(C3(c4cccc(-c5csc6ccccc56)c4)CC3)[nH]c(=O)c2C1` [52-15], the IC50 under setting [1] is below 50 nM and the IC50 under setting [2] is below 10 nM.
As to `O=C([C@H](O)c1cccc(-c2cccc(C(F)(F)F)c2)c1)N1CCCc2nc(C3(c4cccs4)CC3)[nH]c(=O)c2C1` [53-1], the IC50 was below 50 nM under setting [1] and below 10 nM under setting [2].
The like results for `O=C([C@H](O)c1cccc(-c2cccc(OC(F)(F)F)c2)c1)N1CCCc2nc(C3(c4cccs4)CC3)[nH]c(=O)c2C1` [53-2] were, in that order, below 50 nM and below 3 nM.
The like results for `CC(C)c1cccc(-c2cccc([C@@H](O)C(=O)N3CCCc4nc(C5(c6cccs6)CC5)[nH]c(=O)c4C3)c2)c1` [53-3] were, in that order, below 50 nM and below 10 nM.
The like results for `CC(C)(C)c1cccc(-c2cccc([C@@H](O)C(=O)N3CCCc4nc(C5(c6cccs6)CC5)[nH]c(=O)c4C3)c2)c1` [53-4] were, in that order, below 50 nM and below 10 nM.
Take `O=C([C@H](O)c1cccc(-c2cccc(F)c2)c1)N1CCCc2nc(C3(c4cccs4)CC3)[nH]c(=O)c2C1` [53-5]: the IC50 is below 50 nM under setting [1] and below 10 nM under setting [2].
The like results for `O=C([C@H](O)c1cccc(-c2cccc(C3CC3)c2)c1)N1CCCc2nc(C3(c4cccs4)CC3)[nH]c(=O)c2C1` [53-6] were, in that order, below 50 nM and below 3 nM.
The like results for `CC(C)c1csc(C2(c3nc4c(c(=O)[nH]3)CN(C(=O)[C@H](O)c3cccc(-c5cccc(C(C)(C)C)c5)c3)CCC4)CC2)c1` [54-1] were, in that order, below 50 nM and below 3 nM.
The like results for `CC(C)c1csc(C2(c3nc4c(c(=O)[nH]3)CN(C(=O)[C@H](O)c3cccc(-c5cccc(OC(F)(F)F)c5)c3)CCC4)CC2)c1` [54-2] were, in that order, below 50 nM and below 10 nM.
Consider `CC(C)c1csc(C2(c3nc4c(c(=O)[nH]3)CN(C(=O)[C@H](O)c3cccc(-c5cccc(Cl)c5)c3)CCC4)CC2)c1` [54-3], for which the IC50 reads like this: under setting [1], below 50 nM; under setting [2], below 10 nM.
The like results for `CC(C)c1csc(C2(c3nc4c(c(=O)[nH]3)CN(C(=O)[C@H](O)c3cccc(-c5cccc(C(F)(F)F)c5)c3)CCC4)CC2)c1` [54-4] were, in that order, below 50 nM and below 10 nM.
The like results for `CC(C)c1csc(C2(c3nc4c(c(=O)[nH]3)CN(C(=O)[C@H](O)c3cccc(-c5cccc(F)c5)c3)CCC4)CC2)c1` [54-5] were, in that order, below 50 nM and below 3 nM.
With `CC(C)c1csc(C2(c3nc4c(c(=O)[nH]3)CN(C(=O)[C@H](O)c3cccc(-c5ccnc(C(F)(F)F)c5)c3)CCC4)CC2)c1` [54-6], the IC50 by setting is: under setting [1], below 50 nM; under setting [2], below 3 nM.
The like results for `CC(C)(C)c1cccc(-c2cccc([C@@H](O)C(=O)N3CCCc4nc(C5(c6cc(C7CCCCC7)cs6)CC5)[nH]c(=O)c4C3)c2)c1` [54-7] were, in that order, below 50 nM and below 10 nM.
The like results for `O=C([C@H](O)c1cccc(-c2csc3ccccc23)c1)N1CCCc2nc(C3(c4cc(C5CCCCC5)cs4)CC3)[nH]c(=O)c2C1` [54-8] were, in that order, below 50 nM and below 10 nM.
The like results for `O=C([C@H](O)c1cccc(-c2cccc(C(F)(F)F)c2)c1)N1CCCc2nc(C3(c4cc(C5CCCCC5)cs4)CC3)[nH]c(=O)c2C1` [54-9] were, in that order, below 50 nM and below 10 nM.
As to `O=C([C@H](O)c1cccc(-c2cccc(Cl)c2)c1)N1CCCc2nc(C3(c4cc(C5CCCCC5)cs4)CC3)[nH]c(=O)c2C1` [54-10], the IC50 reads like this: under setting [1], below 50 nM; under setting [2], below 10 nM.
The like results for `O=C([C@H](O)c1cccc(-c2cccc(OC(F)(F)F)c2)c1)N1CCCc2nc(C3(c4cc(C5CCCCC5)cs4)CC3)[nH]c(=O)c2C1` [54-11] were, in that order, below 50 nM and below 10 nM.

The term IC50 denotes the concentration that gives 50% inhibition. Higher therefore signals a need for much substance.
